# From ChEMBL document CHEMBL5678804 (Cancer Cell, 2011)
# Active and inactive are the calls of the source. The rule behind the calls is not given here.
# What was measured:
# [1] = molecular target: Hepatocyte growth factor receptor (Homo sapiens, UniProt P08581); assay: Inhibition of human wild type MET using Poly(Ala,Glu,Lys,Tyr)6:2:5:1 as substrate preincubated for 2 hrs followed by ATP addition and measured every 2 mins for […] by spectrophotometric analysis
# [2] = molecular target: Tyrosine-protein kinase SYK (Homo sapiens, UniProt P43405); assay: Inhibition of human wild type SYK using PolyEY as substrate preincubated for 2 hrs followed by ATP addition and measured every 2 mins for […] by spectrophotometric analysis
# Misshapen-like kinase 1 = Misshapen-like kinase 1 (Homo sapiens, UniProt Q8N4C8); assay: Inhibition of human wild type MINK using RBER-CHKtide as substrate preincubated for 2 hrs followed by ATP addition and measured every 2 mins for […] by spectrophotometric analysis
# [3] = molecular target: Death-associated protein kinase 3 (Homo sapiens, UniProt O43293); assay: Inhibition of human wild type ZIPK using RBER-GSK3([…] to […]) as substrate preincubated for 2 hrs followed by ATP addition and measured every 2 mins for […] by spectrophotometric analysis
# Death-associated protein kinase 3, sequence (O43293 whole entry): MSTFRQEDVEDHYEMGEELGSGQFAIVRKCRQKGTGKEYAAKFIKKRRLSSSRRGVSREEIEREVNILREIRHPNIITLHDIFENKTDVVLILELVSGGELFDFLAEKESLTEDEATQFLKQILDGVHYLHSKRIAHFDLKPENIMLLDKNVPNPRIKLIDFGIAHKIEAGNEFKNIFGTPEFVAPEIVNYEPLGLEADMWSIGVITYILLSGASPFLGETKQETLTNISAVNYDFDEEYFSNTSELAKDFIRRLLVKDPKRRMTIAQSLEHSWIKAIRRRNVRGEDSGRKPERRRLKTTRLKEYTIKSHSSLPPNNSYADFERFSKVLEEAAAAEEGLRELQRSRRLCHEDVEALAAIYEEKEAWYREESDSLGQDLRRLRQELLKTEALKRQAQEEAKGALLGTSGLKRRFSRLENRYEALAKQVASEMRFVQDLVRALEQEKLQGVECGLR
# [4] = molecular target: Tyrosine-protein kinase Mer (Homo sapiens, UniProt Q12866); assay: Inhibition of human wild type MER using PolyEY as substrate preincubated for 2 hrs followed by ATP addition and measured every 2 mins for […] by spectrophotometric analysis
# [5] = molecular target: Maternal embryonic leucine zipper kinase (Homo sapiens, UniProt Q14680); assay: Inhibition of human wild type MELK using RBER-CHKtide as substrate preincubated for 2 hrs followed by ATP addition and measured every 2 mins for […] by spectrophotometric analysis
# [6] = molecular target: Serine/threonine-protein kinase BRSK1 (Homo sapiens, UniProt Q8TDC3); assay: Inhibition of human wild type BRSK1 using RBER-CHKtide as substrate preincubated for 2 hrs followed by ATP addition and measured every 2 mins for […] by spectrophotometric analysis
# [7] = molecular target: Mitogen-activated protein kinase 9 (Homo sapiens, UniProt P45984); assay: Inhibition of human wild type JNK2alpha2 using ATF2 as substrate preincubated for 2 hrs followed by ATP addition and measured every 2 mins for […] by spectrophotometric analysis
# Focal adhesion kinase 1 = Focal adhesion kinase 1 (Homo sapiens, UniProt Q05397); assay: Inhibition of human wild type FAK using PolyEY as substrate preincubated for 2 hrs followed by ATP addition and measured every 2 mins for […] by spectrophotometric analysis
# Focal adhesion kinase 1, sequence (Q05397 whole entry): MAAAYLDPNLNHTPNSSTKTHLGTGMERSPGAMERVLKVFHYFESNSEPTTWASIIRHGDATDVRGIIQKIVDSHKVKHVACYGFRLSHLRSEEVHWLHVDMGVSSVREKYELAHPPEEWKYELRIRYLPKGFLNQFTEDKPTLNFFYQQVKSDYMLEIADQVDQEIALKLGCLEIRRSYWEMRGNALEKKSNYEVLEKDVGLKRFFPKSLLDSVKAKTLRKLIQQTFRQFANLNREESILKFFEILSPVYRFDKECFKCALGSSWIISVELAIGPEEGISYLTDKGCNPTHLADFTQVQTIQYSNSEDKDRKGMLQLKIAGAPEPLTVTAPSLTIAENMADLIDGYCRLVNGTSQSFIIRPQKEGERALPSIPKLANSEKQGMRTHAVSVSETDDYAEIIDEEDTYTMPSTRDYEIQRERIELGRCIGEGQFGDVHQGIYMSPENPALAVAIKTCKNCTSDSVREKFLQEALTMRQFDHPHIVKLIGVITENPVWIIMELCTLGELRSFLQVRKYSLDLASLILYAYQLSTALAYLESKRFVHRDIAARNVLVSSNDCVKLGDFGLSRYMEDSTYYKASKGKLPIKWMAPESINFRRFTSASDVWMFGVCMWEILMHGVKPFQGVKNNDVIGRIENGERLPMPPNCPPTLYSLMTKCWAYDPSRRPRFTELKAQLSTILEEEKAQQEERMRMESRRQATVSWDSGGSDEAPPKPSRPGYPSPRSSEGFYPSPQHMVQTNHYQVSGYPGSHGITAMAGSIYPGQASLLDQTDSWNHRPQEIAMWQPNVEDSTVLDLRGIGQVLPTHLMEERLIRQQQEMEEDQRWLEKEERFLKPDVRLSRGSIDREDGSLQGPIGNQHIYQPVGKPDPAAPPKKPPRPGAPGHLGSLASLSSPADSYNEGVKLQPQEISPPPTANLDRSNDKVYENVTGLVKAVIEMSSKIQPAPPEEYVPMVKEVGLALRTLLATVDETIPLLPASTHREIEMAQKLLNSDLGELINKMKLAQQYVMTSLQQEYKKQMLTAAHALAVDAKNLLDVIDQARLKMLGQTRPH
# [8] = molecular target: Serine/threonine-protein kinase 33 (Homo sapiens, UniProt Q9BYT3); assay: Inhibition of human wild type STK33 using RBER-CHKtide as substrate preincubated for 2 hrs followed by ATP addition and measured every 2 mins for […] by spectrophotometric analysis
# [9] = Inhibition of human wild type CDK2/A using RBER-CHKtide as substrate preincubated for 2 hrs followed by ATP addition and measured every 2 mins for […] by spectrophotometric analysis
# [10] = molecular target: Serine/threonine-protein kinase VRK1 (Homo sapiens, UniProt Q99986); assay: Inhibition of human wild type VRK1 using RBER-CHKtide as substrate preincubated for 2 hrs followed by ATP addition and measured every 2 mins for […] by spectrophotometric analysis
# Aurora kinase C = Aurora kinase C (Homo sapiens, UniProt Q9UQB9); assay: Inhibition of human wild type AuroraC using bio-4xCHKT as substrate preincubated for 2 hrs followed by ATP addition and measured every 2 mins for […] by spectrophotometric analysis
# Aurora kinase C, sequence (Q9UQB9 whole entry): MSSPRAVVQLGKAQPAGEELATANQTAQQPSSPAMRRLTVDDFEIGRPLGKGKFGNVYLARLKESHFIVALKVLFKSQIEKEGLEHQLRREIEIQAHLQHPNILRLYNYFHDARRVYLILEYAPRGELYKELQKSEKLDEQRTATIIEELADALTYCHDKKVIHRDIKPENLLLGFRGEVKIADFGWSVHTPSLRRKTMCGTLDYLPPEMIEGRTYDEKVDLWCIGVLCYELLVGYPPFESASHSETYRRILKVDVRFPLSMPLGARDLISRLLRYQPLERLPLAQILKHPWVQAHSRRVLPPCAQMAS
# [11] = molecular target: Proto-oncogene tyrosine-protein kinase ROS (Homo sapiens, UniProt P08922); assay: Inhibition of human wild type ROS using Poly(Ala,Glu,Lys,Tyr)6:2:5:1 as substrate preincubated for 2 hrs followed by ATP addition and measured every 2 mins for […] by spectrophotometric analysis
# [12] = molecular target: Dual specificity mitogen-activated protein kinase kinase 6 (Homo sapiens, UniProt P52564); assay: Inhibition of human wild type MKK6 using p38-alpha KA as substrate preincubated for 2 hrs followed by ATP addition and measured every 2 mins for […] by spectrophotometric analysis
# Dual specificity mitogen-activated protein kinase kinase 6, sequence (P52564 whole entry): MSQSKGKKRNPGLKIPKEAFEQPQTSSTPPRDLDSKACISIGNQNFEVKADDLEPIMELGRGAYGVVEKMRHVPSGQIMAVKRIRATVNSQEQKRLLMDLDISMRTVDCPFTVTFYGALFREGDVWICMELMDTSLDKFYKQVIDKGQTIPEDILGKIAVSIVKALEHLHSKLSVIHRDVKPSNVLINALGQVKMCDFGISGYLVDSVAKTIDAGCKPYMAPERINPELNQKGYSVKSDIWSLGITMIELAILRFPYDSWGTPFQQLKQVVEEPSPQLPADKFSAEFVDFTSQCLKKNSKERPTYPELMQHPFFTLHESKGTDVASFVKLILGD
# [13] = molecular target: RAC-alpha serine/threonine-protein kinase (Homo sapiens, UniProt P31749); assay: Inhibition of human wild type AKT1 using RBER-GSK3([…] to […]) as substrate preincubated for 2 hrs followed by ATP addition and measured every 2 mins for […] by spectrophotometric analysis
# SRSF protein kinase 1 = SRSF protein kinase 1 (Homo sapiens, UniProt Q96SB4); assay: Inhibition of human wild type SRPK1 using MBP as substrate preincubated for 2 hrs followed by ATP addition and measured every 2 mins for […] by spectrophotometric analysis
# [14] = molecular target: Death-associated protein kinase 1 (Homo sapiens, UniProt P53355); assay: Inhibition of human wild type DAPK1 using RBER-GSK3([…] to […]) as substrate preincubated for 2 hrs followed by ATP addition and measured every 2 mins for […] by spectrophotometric analysis
# Death-associated protein kinase 1, sequence (P53355 whole entry): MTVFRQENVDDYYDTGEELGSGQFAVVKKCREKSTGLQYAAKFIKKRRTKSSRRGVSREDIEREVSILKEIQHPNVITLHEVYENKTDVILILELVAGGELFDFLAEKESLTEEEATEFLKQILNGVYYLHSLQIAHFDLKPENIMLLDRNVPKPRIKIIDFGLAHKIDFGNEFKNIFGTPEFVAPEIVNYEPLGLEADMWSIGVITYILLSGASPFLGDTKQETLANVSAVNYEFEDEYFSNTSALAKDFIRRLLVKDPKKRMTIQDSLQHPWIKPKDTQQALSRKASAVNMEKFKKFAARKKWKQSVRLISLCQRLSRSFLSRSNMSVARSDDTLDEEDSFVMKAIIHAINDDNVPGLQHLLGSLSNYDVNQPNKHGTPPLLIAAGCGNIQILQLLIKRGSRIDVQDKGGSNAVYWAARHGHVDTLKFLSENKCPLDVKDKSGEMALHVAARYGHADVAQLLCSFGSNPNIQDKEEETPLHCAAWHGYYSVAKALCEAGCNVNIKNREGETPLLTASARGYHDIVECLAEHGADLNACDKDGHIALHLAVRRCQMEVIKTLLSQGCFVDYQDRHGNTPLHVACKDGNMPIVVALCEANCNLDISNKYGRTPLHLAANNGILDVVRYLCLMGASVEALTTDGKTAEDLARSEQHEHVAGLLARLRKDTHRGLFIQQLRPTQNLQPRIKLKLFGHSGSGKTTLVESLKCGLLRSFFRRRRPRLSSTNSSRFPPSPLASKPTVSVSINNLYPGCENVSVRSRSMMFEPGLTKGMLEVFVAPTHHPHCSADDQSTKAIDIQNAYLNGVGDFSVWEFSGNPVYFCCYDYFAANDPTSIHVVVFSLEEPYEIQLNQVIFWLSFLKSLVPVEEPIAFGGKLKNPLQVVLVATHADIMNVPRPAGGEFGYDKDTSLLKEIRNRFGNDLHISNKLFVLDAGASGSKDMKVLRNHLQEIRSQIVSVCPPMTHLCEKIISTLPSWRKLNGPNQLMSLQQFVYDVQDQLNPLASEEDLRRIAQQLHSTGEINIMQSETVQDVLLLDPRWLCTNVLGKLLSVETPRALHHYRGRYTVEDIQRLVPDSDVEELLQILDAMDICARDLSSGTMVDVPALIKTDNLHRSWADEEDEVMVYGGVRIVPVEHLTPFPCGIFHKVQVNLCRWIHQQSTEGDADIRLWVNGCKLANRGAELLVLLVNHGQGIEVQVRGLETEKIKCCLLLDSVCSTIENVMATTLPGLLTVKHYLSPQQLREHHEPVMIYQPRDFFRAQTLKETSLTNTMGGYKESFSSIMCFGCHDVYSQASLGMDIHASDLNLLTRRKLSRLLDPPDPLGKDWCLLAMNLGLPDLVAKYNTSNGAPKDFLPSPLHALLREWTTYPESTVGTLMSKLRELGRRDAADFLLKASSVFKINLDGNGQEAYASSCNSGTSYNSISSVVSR
# [15] = molecular target: Protein kinase C alpha type (Homo sapiens, UniProt P17252); assay: Inhibition of human wild type PKC alpha using 3xChocktide-PKC(19to 31) as substrate preincubated for 2 hrs followed by ATP addition and measured every 2 mins for […] by spectrophotometric analysis
# Mononuclear cell line = assay: Inhibition of myeloid colony formation in CML patient derived human Mononuclear cell line; type: functional, cell-based; conditions: dose 50-200 nM
# [16] = molecular target: Fibroblast growth factor receptor 3 (Homo sapiens, UniProt P22607); assay: Inhibition of human wild type FGFR3 using PolyEY as substrate preincubated for 2 hrs followed by ATP addition and measured every 2 mins for […] by spectrophotometric analysis
# [17] = molecular target: MAP kinase-interacting serine/threonine-protein kinase 1 (Homo sapiens, UniProt Q9BUB5); assay: Inhibition of human wild type MNK1 using RB-S6P as substrate preincubated for 2 hrs followed by ATP addition and measured every 2 mins for […] by spectrophotometric analysis
# [18] = molecular target: Serine/threonine-protein kinase TBK1 (Homo sapiens, UniProt Q9UHD2); assay: Inhibition of human wild type TBK1 using Casein as substrate preincubated for 2 hrs followed by ATP addition and measured every 2 mins for […] by spectrophotometric analysis
# [19] = molecular target: Receptor tyrosine-protein kinase erbB-2 (Homo sapiens, UniProt P04626); assay: Inhibition of human wild type HER2 using PolyEY as substrate preincubated for 2 hrs followed by ATP addition and measured every 2 mins for […] by spectrophotometric analysis
# [20] = molecular target: Crk-like protein (Homo sapiens) (UniProt P46109); assay: Inhibition of CrkL phosphorylation in Ph+ B-ALL patient with […] mutation derived human Leukemia cell at 50 to 1000 nM by immunoblot analysis; type: cell-based; conditions: dose 50-1000 nM
# Crk-like protein (Homo sapiens), sequence (P46109 whole entry): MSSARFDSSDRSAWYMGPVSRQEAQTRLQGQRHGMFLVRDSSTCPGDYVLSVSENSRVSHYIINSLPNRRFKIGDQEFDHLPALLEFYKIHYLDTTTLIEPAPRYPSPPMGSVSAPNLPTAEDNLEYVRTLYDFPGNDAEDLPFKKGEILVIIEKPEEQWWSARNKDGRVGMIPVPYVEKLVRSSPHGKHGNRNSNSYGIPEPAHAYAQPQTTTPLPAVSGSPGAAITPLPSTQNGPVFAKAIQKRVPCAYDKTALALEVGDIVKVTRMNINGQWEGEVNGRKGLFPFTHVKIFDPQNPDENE
# [21] = molecular target: Macrophage-stimulating protein receptor (Homo sapiens, UniProt Q04912); assay: Inhibition of human wild type RON using PolyEY as substrate preincubated for 2 hrs followed by ATP addition and measured every 2 mins for […] by spectrophotometric analysis
# [22] = molecular target: Mitogen-activated protein kinase kinase kinase 8 (Homo sapiens, UniProt P41279); assay: Inhibition of human wild type COT1 using RBER-CHKtide as substrate preincubated for 2 hrs followed by ATP addition and measured every 2 mins for […] by spectrophotometric analysis
# Mitogen-activated protein kinase kinase kinase 8, sequence (P41279 whole entry): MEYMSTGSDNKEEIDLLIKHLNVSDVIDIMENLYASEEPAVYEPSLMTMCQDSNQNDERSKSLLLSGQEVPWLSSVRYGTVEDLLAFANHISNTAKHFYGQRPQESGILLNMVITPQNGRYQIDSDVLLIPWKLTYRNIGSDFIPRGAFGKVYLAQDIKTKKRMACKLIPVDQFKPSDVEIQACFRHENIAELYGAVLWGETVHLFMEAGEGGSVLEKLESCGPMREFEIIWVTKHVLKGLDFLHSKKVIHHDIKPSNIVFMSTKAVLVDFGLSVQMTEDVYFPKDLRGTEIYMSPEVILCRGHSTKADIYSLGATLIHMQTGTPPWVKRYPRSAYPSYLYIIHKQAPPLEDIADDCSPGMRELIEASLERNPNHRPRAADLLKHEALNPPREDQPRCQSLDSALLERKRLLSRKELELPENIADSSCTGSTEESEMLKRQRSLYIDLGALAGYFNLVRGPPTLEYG
# [23] = molecular target: Tyrosine-protein kinase CSK (Homo sapiens, UniProt P41240); assay: Inhibition of human wild type CSK using PolyEY as substrate preincubated for 2 hrs followed by ATP addition and measured every 2 mins for […] by spectrophotometric analysis
smiles,measurement,setting,value
CNC(=O)c1cc(Oc2ccc(NC(=O)Nc3cc(C(C)(C)C)nn3-c3ccc4ncccc4c3)c(F)c2)ccn1 [REBASTINIB],IC50,[1],250 nM
same,IC50,[2],160 nM
same,IC50,Misshapen-like kinase 1,11 nM
same,IC50,[3],> 1000 nM
same,IC50,[4],7.6 nM
same,IC50,[5],> 1000 nM
same,IC50,[6],> 1000 nM
same,IC50,[7],240 nM
same,IC50,Focal adhesion kinase 1,250 nM
same,IC50,[8],> 1000 nM
same,IC50,[9],> 1000 nM
same,IC50,[10],> 1000 nM
same,IC50,Aurora kinase C,> 1000 nM
same,IC50,[11],340 nM
same,IC50,[12],> 1000 nM
same,IC50,[13],> 1000 nM
same,IC50,SRSF protein kinase 1,> 1000 nM
same,IC50,[14],> 1000 nM
same,IC50,[15],> 1000 nM
same,inhibition,Mononuclear cell line,Dose-Dependent Effect
same,IC50,[16],10 nM
same,IC50,[17],> 1000 nM
same,IC50,[18],> 1000 nM
same,IC50,[19],> 1000 nM
same,inhibition,[20],Active
same,IC50,[21],300 nM
same,IC50,[22],> 1000 nM
same,IC50,[23],25 nM
